Earlier results, collected in article PMC2667333 (Molecular cell, 2009).

System: calcineurin (CN)
Conditions: ref Swanson et al., 1992; Yin and Ochs, 2003

Molecule | effect on CN-mediated pNPP dephosphorylation
cyclosporin A [CsA] | increase CN-mediated pNPP dephosphorylation
C=CC[C@@H]1/C=C(\C)C[C@H](C)C[C@H](OC)[C@H]2O[C@@](O)(C(=O)C(=O)N3CCCC[C@H]3C(=O)O[C@H](/C(C)=C/[C@@H]3CC[C@@H](O)[C@H](OC)C3)[C@H](C)[C@@H](O)CC1=O)[C@H](C)C[C@@H]2OC [FK506] | increase CN-mediated pNPP dephosphorylation
